Measured values published in patent US7816560B1, “Long chain n-alkyl compounds and oxa-derivatives thereof” (Thomas Jefferson University, priority 1999, dated 2010).
pIC50: −log10 of the molar value. Like-named read-outs stand apart in the source and are kept apart here. Blank lines part the entries; values can stand above or below the molecule they belong to.

Tests used:
[1] = target: T1, ceramide glucosyl transferase (CerGlcT) (Homo sapiens, UniProt Q16739); assay: Inhibition of ceramide glucosyl transferase / glycolipid synthesis; type: biochemical; conditions: for Inhibitor of glycolipid synthesis: Yes/No; for pIC50: N-alkyl DNJ derivatives
T1 sequence (Q16739 1-394): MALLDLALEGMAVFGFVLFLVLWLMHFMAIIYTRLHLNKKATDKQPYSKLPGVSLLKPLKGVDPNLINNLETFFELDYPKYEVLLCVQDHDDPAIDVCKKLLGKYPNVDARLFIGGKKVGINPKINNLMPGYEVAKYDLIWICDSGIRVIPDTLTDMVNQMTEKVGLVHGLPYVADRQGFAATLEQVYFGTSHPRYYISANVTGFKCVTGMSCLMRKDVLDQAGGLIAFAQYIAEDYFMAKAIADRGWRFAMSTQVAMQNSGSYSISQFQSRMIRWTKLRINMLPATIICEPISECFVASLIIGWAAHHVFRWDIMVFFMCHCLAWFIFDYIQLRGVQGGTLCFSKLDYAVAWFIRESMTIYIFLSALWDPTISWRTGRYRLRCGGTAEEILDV

BVDV = BVDV plaque reduction and yield assays in MDBK cells; type: cell-based, bovine viral diarrhea virus; conditions: for Anti-viral effect on BVDV in MDBK cells: Yes/No
α-glucosidase = assay: Inhibition of α-glucosidase; type: biochemical; conditions: for Inhibitor of α glucosidase: Yes/No; for pIC50: N-alkyl DNJ derivatives
Excerpt: The inhibitory activity (IC50) and the cell cytotoxicity (IC50) of various compounds, as well as their effect on α-glucosidase and ceramide glucosyl transferase, are shown in Table 2.

MDBK cells = assay: Toxicity / cell cytotoxicity in MDBK cells; type: cell-based; conditions: for % Viability at 10 μM: N-alkyl DNJ at 10 μM; for % Viability at 100 μM: N-alkyl DNJ at 100 μM
HBV [2] = assay: Secreted HBV DNA by Southern blot hybridization; type: cell-based, hepatitis B virus; conditions: HepG2.2.15 cells, seven days
Description: Secreted DNA analysis: Secreted DNA analysis was performed by the method of Wei et al. (J. Virol. 70:6455-6458, 1996). […] Media containing drug was changed every two days and on the 7th day the media taken and the virus concentrated by pelleting through 20% sucrose for 16 hours (SW 41 rotor, 36,000 RPM). Virus was resuspended in 400 μL of 10 mM TRIS (pH 7.9), 10 mM EDTA (pH 8.0), and 10 mM MgCl2. Samples were split into two 200 μL aliquots and labeled as +Dnase and −Dnase. To both tubes, 15 μl of proteinase K was added to a final concentration of 750 μg/ml for one hour at 37° C. After one hour, 10 pl Dnase was added to the tube labeled +Dnase (final concentration is 50 units/ml) and incubated at 37° C. for one hour. SDS was added to a final concentration of 1% and additional proteinase K added to a final concentration of 500 μg/ml and the reaction allowed to proceed at 37° C. for 3-4 hours. DNA was than purified by phenol/chloroform extraction. DNA was separated on 1% agarose gel and probed with ^32P labeled probes as described (Mehta et al., Proc. Natl. Acad. Sci. USA 94:1822-1827, 1997).
HepG2.2.15 cells were grown for seven days in the absence or presence of NB-DNJ (1000 μg/ml), NN-DNJ (20 μg/ml) or NN-DGJ (20 μg/ml), respectively. After seven days, virus was isolated from these cell cultures, concentrated, and purified. Secreted HBV DNA was detected by Southern blot hybridization. HBV viral DNA from untreated cells was readily detected. The secretion of HBV DNA from treated HepG2.2.15 was also detected.

Hep G2.2.15 cells [3] = system: Hep G2.2.15 cells
HBV polymerase = target: T2, HBV polymerase (Hepatitis B virus genotype D subtype ayw, UniProt P03156); assay: Endogenous polymerase assay on purified HBV virions; type: biochemical
T2 construct: HBV virions were purified from the culture medium of untreated cells by ultracentrifugation and the polymerase activity (in the presence of the indicated compounds) tested; expressed in transfected cells; host or cells: Hep G2.2.15 (HepG2 stably transfected with a dimer of the HBV genome); virions pelleted from the culture medium
Description: Endogenous polymerase assay: Media containing HBV from Hep G2.2.15 cells was pelleted through 20% sucrose (SW 28 Rotor, 24,000 RPM) for 16 hours and the pellet re-suspended in 50 μl of a mixture containing 50 mM Tris (pH 7.5), 75 mM NH4Cl, 1 mM EDTA, 25 mM MgCl2, 0.1% β-mercaptoethanol, 0.5% NP-40, 0.4 mM each of dATP, dGTP, dTTP and 10 μl of P^32 labeled dCTP. […] DNA was purified by a phenol/chloroform extraction and ethanol precipitation.
HBV DNA replication involves the conversion of a pregenomic RNA (pgRNA) into DNA by the action of the HBV polymerase. Current nucleoside analogue drugs (e.g., 3TC) for treating HBV target this reaction, preventing the formation and secretion of HBV viral DNA. Because the iminosugar N-nonyl-DGJ prevents the formation of HBV rc DNA, it was important to determine whether N-nonyl-DGJ was acting by inhibiting the elongation step of the polymerase. HBV virions from normal and drug treated Hep G2.2.15 cells were purified and the endogenous polymerase activity was measured. HBV virions were purified from the culture medium of untreated cells by ultracentrifugation and the polymerase activity (in the presence of the indicated compounds) tested by the method of Ganem et al. (1998). Briefly, partially purified viral particles were incubated overnight with the indicated concentrations of compound and 10 μCi of ^32P-dCTP. Viral DNA was purified by phenol extraction and ethanol precipitation and resolved on a 1.2% agarose gel. The gel was dried and viral DNA bands detected using a Phospholmager.

Hepatitis B virus (HBV) = assay: Secretion of enveloped HBV from Hep G2.2.15 cells, antigen capture/PCR assay; type: cell-based
Excerpt: Pairs of wells were used for each concentration point.
^2IC 50: The concentration of compound that prevented the secretion of 50% of the amount of HBV detected in the medium from wells containing untreated cultures.

HBV [4] = assay: Intracellular HBV DNA in HepG2.2.15 cells by Southern blot; type: cell-based, hepatitis B virus; conditions: seven days; for Effect on intracellular HBV DNA: 3TC 1 μg/ml, NB-DNJ 1000 μg/ml, NN-DNJ and NN-DGJ 2 or 20 μg/ml
Description: Intracellular DNA analysis: Hep G2.2.15 cells were either left untreated or treated with the compounds listed above for seven days and the total DNA extracted as described (Mehta et al., ibid). DNA (20 μg) was digested with HindIII, resolved through a 1.2% agarose gel and transferred to nylon membranes. Membranes were then hybridized with a ^32P labeled probe containing the total HBV genome and developed as described (Lu et al., Proc. Natl. Acad. Sci. USA 94:2380-2385, 1997). The relaxed circular (rc), linear (lin), and closed circular (CCC) DNA were confirmed by enzymatic digestion.
An infected cell contains several forms of HBV DNA which represent different stages in the HBV life cycle. For example, covalently closed circular DNA (CCC DNA) is the nuclear form of the DNA and is thought to be the viral template (Heermann & Gerlich, 1992). In contrast, the relaxed circular DNA (re DNA) and linear forms (lin) are associated with the viral particle and their presence is an indicator of encapsidation of the viral pre-genomic RNA and the subsequent reverse transcription into progeny DNA (Ganem, Curr. Top. Microbiol. Immunol. 168:61-83, 1991). […] The amount of virus associated with the cells was detected seven days later by Southern blot analysis. The locations of the HBV relaxed circular DNA (rcDNA), covalently close circular (CCC) DNA, and single stranded (SS) DNA was identified by relative mobility.

[5] = Toxicity / cell cytotoxicity in MDBK cells; type: cell-based; conditions: bovine
Hep G2.2.15 cells [6] = assay: MTT toxicity in Hep G2.2.15 cultures; conditions: Hep G2.2.15 cultures at conclusion of experiment (10 days)
[7] = Bovine viral diarrhea virus isolates and strains, MDBK, read-out: Anti-viral effect on BVDV in MDBK cells IC50
[8] = MDBK cells, read-out: Anti-viral effect on BVDV in MDBK cells IC50
[9] = Hepatitis B virus, HepG2.2.15, 216 h, Hep G2.2.15 cells, nine days of incubation, read-out: IC 50, secretion of HBV

T2 sequence (P03156 whole entry): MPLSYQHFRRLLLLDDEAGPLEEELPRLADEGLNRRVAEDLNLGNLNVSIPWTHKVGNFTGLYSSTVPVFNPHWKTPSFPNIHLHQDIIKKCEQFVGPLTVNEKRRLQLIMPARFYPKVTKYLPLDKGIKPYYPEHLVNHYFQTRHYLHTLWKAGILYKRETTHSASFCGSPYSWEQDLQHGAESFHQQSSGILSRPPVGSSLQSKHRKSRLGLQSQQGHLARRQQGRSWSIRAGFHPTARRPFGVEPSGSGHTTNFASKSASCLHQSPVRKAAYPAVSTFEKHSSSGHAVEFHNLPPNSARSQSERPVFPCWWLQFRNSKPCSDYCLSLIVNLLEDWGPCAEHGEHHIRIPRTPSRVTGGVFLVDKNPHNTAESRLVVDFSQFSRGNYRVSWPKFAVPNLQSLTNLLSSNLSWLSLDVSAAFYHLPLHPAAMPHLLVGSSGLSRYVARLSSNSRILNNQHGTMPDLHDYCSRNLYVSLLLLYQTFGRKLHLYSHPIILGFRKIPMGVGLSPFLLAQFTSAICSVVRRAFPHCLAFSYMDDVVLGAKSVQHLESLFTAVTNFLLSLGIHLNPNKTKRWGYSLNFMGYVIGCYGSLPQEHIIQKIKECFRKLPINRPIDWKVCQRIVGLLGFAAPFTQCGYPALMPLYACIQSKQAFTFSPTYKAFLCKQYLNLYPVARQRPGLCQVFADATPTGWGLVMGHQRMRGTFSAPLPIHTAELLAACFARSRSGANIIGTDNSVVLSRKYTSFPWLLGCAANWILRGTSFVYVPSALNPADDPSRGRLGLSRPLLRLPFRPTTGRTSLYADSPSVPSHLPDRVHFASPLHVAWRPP

Compound: CCCCCCCCCN1C[C@H](O)[C@@H](O)[C@@H](O)[C@H]1C [N-nonyl MeDGJ, N-nonyl-1,5,6-trideoxy-1,5-imino-D-galactitol]
Inhibitor of glycolipid synthesis [1]: No
pIC50 (BVDV; Bovine viral diarrhea virus isolates and strains, MDBK, read-out: IC50, BVDV plaques): > 5.60
pIC50 (BVDV; [7]): 5.52 to 5.70
Anti-viral effect on BVDV in MDBK cells (BVDV): Yes
melting point: 49 to 51 °C
Inhibitor of α glucosidase (α-glucosidase): No

pIC50 [1]: 5.28
Compound: CCCCCCCCCCCCN1C[C@H](O)[C@@H](O)[C@H](O)[C@H]1CO [C12]
% Viability at 10 μM (MDBK cells): 86%
% Viability at 100 μM (MDBK cells): 1%

pIC50 [1]: 5.51
pIC50 (α-glucosidase): 6.32
Compound: CCCCCCCCCCN1C[C@H](O)[C@@H](O)[C@H](O)[C@H]1CO [C10]
% Viability at 10 μM (MDBK cells): 73%
% Viability at 100 μM (MDBK cells): 43%

pIC50 [1]: 4.77
Compound: CCCCCCCCN1C[C@H](O)[C@@H](O)[C@H](O)[C@H]1CO [C8]
% Viability at 10 μM (MDBK cells): 70%
% Viability at 100 μM (MDBK cells): 71%

pIC50 [1]: 4.62
Compound: CCCCCCN1C[C@H](O)[C@@H](O)[C@H](O)[C@H]1CO [C6]
% Viability at 10 μM (MDBK cells): 73%
% Viability at 100 μM (MDBK cells): 71%

Compound: CCCCCCCCCN1C[C@H](O)[C@@H](O)[C@H](O)[C@H]1CO [N-nonyl DNJ, N-nonyl-deoxynojirimycin]
Decrease of secreted virus DNA (HBV [2]; 20 μg/ml): ~1.5 fold
TOX 50 (MTT activity reduced to 50%) (Hep G2.2.15 cells [3]): >100 µM
Effect on HBV polymerase activity (HBV polymerase; 69 μM): no effect on polymerase activity
pIC50 (Hepatitis B virus (HBV); Hep G2.2.15 cells, antigen capture method, read-out: IC50, HBV secretion): ~6.00
pIC50 (Hepatitis B virus (HBV); Hep G2.2.15 cells, nine days of incubation, read-out: IC 50, secretion of HBV): 5.40 to 6.40
CC50 (MDBK cells): 250 µM
% Viability at 10 μM (MDBK cells): 56%
% Viability at 100 μM (MDBK cells): 41%
pIC50 (BVDV; [8]): 5.52 to 5.70
Anti-viral effect on BVDV in MDBK cells (BVDV): Yes
Inhibitor of α glucosidase (α-glucosidase): Yes
Effect on intracellular HBV DNA (HBV [4]): did not cause a large increase in intracellular HBV DNA but rather a reduction

Compound: CCCCCCCCCN1C[C@H](O)[C@@H](O)[C@@H](O)[C@H]1CO [N-nonyl DGJ, N-nonyl-1,5-dideoxy-1,5-imino-D-galactitol]
Decrease of secreted virus DNA (HBV [2]; 20 μg/ml): about 14 fold
Effect on HBV polymerase activity (HBV polymerase; 69 μM): no effect on polymerase activity
Reduction of enveloped HBV in the culture medium (Hepatitis B virus (HBV); Hep G2.2.15 cells, compared with untreated controls, nine days): at least as effective as NN-DNJ in reducing the HBV secretion
pIC50 (Hepatitis B virus (HBV); [9]): 5.30 to 5.82
pIC50 (Hepatitis B virus (HBV); Hepatitis B virus, HepG2.2.15, read-out: IC50, HBV secretion): ~6.30
CC50 [5]: 250 µM
pIC50 (BVDV; [7]): 5.30
Anti-viral effect on BVDV in MDBK cells (BVDV): Yes
TOX 50 (MTT activity reduced to 50%) (Hep G2.2.15 cells [6]): >200 µM
Inhibitor of α glucosidase (α-glucosidase): No
Reduction of intracellular HBV DNA (HBV [4]; 2 or 20 μg/ml): greater than 25 fold
Effect on intracellular HBV DNA (HBV [4]): almost complete disappearance of intracellular HBV DNA

Compound: CCCCN1C[C@H](O)[C@@H](O)[C@@H](O)[C@H]1CO [N-butyl DGJ, reference compound]
Anti-viral effect on BVDV in MDBK cells (BVDV): No
Inhibitor of α glucosidase (α-glucosidase): No

Compound: OC[C@H]1NC[C@H](O)[C@@H](O)[C@@H]1O [DNJ, deoxynorjirimycin, reference compound]
pIC50 (BVDV; [8]): 4.70
Anti-viral effect on BVDV in MDBK cells (BVDV): Yes
Inhibitor of α glucosidase (α-glucosidase): Yes

Compound: Nc1ccn([C@@H]2CS[C@H](CO)O2)c(=O)n1 [3TC, reference compound]
pIC50 (Hepatitis B virus (HBV); [9]): 5.30

Compound: CCOCCCCCCN1C[C@H](O)[C@@H](O)[C@@H](O)[C@H]1C [N-7-oxa-nonyl MeDGJ, N-(7-oxa-nonyl)-1,5,6-trideoxy-1,5-imino-D-galactitol]
Inhibitor of glycolipid synthesis [1]: No
CC50 [5]: 2100 µM
Selectivity index (CC50/IC50) (BVDV; BVDV in MDBK cells): 1400
pIC50 (BVDV; [7]): 5.82
Anti-viral effect on BVDV in MDBK cells (BVDV): Yes
Inhibitor of α glucosidase (α-glucosidase): No

Compound: CCCCN1C[C@H](O)[C@@H](O)[C@H](O)[C@H]1CO [N-butyl DNJ, N-butyl deoxynojiricmycin, reference compound]
Decrease of secreted virus DNA (HBV [2]; 1000 μg/ml): about 3 fold
Effect on HBV polymerase activity (HBV polymerase; 4.52 mM): no effect on polymerase activity
CC50 (MDBK cells): > 10000 µM
% Viability at 10 μM (MDBK cells): 74%
% Viability at 100 μM (MDBK cells): 77%
pIC50 (BVDV; [8]): 3.92 to 4.22
Anti-viral effect on BVDV in MDBK cells (BVDV): Yes
pIC50 (α-glucosidase): 6.24
Inhibitor of α glucosidase (α-glucosidase): Yes
Effect on intracellular HBV DNA (HBV [4]): dramatic increase in the replicative forms of HBV DNA
